Assay results published in paper PMC10382584, “Macrocyclization of linear molecules by deep learning to facilitate macrocyclic drug candidates discovery” (Nature Communications, 2023).

What was measured:
Experiment in all cases: biochemical
Design in all cases: DiscoveRx KINOMEscan competition binding, percent of DMSO control signal at 100 nM
Details in all cases: read-out: Fig. 4a / Percent Control / Compound 1; percent of DMSO control, competition binding
FLT3-autoinhibited = FLT3-autoinhibited (Homo sapiens, UniProt P36888)
EPHB1 = EPHB1 (Homo sapiens, UniProt P54762)
TLK1 = TLK1 (Homo sapiens, UniProt Q9UKI8)
[1] = molecular target: EGFR(L747-E749del, A750P) (Homo sapiens, UniProt P00533, A750P/DEL747-749)
FGFR2 = FGFR2 (Homo sapiens, UniProt P21802)
MYO3B = MYO3B (Homo sapiens, UniProt Q8WXR4)
p38-beta = molecular target: T1, p38-beta (Homo sapiens, UniProt Q15759)
T1 construct: gene MAPK11

ICK = molecular target: T2, ICK (Homo sapiens, UniProt Q9UPZ9)
T2 construct: gene CILK1

LRRK2 = LRRK2 (Homo sapiens, UniProt Q5S007)
ARK5 = molecular target: T3, ARK5 (Homo sapiens, UniProt O60285)
T3 construct: gene NUAK1

LIMK1 = LIMK1 (Homo sapiens, UniProt P53667)
[2] = molecular target: T4, TYK2(JH2domain-pseudokinase) (Homo sapiens, UniProt P29597)
T4 construct: JH2domain-pseudokinase

CDKL1 = CDKL1 (Homo sapiens, UniProt Q00532)
ALK = ALK (Homo sapiens, UniProt Q9UM73)
PKN2 = PKN2 (Homo sapiens, UniProt Q16513)
HIPK2 = HIPK2 (Homo sapiens, UniProt Q9H2X6)
[3] = molecular target: T5, RSK1(Kin.Dom.1-N-terminal) (Homo sapiens, UniProt Q15418)
T5 construct: gene RPS6KA1; Kin.Dom.1-N-terminal

MKNK1 = MKNK1 (Homo sapiens, UniProt Q9BUB5)
ULK1 = ULK1 (Homo sapiens, UniProt O75385)
PYK2 = molecular target: T6, PYK2 (Homo sapiens, UniProt Q14289)
T6 construct: gene PTK2B

EIF2AK1 = EIF2AK1 (Homo sapiens, UniProt Q9BQI3)
MRCKB = molecular target: T7, MRCKB (Homo sapiens, UniProt Q9Y5S2)
T7 construct: gene CDC42BPB

TGFBR1 = TGFBR1 (Homo sapiens, UniProt P36897)
HUNK = HUNK (Homo sapiens, UniProt P57058)
ERK1 = molecular target: T8, ERK1 (Homo sapiens, UniProt P27361)
T8 construct: gene MAPK3
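Note: KINOMEscan kinase panel binding assay, signal normalized between DMSO as 100% and a positive control compound as 0%.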

Sequence of CDKL1 (Q00532 whole entry): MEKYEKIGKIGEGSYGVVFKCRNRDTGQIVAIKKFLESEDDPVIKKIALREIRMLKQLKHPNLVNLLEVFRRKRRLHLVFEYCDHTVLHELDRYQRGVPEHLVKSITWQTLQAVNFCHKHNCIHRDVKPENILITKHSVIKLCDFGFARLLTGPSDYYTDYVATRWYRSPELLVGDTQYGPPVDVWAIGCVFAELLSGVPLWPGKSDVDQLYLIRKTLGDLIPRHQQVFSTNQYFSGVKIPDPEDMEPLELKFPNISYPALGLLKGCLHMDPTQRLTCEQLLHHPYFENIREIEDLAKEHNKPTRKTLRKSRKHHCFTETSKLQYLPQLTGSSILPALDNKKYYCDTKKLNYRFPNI
Sequence of ULK1 (O75385 whole entry): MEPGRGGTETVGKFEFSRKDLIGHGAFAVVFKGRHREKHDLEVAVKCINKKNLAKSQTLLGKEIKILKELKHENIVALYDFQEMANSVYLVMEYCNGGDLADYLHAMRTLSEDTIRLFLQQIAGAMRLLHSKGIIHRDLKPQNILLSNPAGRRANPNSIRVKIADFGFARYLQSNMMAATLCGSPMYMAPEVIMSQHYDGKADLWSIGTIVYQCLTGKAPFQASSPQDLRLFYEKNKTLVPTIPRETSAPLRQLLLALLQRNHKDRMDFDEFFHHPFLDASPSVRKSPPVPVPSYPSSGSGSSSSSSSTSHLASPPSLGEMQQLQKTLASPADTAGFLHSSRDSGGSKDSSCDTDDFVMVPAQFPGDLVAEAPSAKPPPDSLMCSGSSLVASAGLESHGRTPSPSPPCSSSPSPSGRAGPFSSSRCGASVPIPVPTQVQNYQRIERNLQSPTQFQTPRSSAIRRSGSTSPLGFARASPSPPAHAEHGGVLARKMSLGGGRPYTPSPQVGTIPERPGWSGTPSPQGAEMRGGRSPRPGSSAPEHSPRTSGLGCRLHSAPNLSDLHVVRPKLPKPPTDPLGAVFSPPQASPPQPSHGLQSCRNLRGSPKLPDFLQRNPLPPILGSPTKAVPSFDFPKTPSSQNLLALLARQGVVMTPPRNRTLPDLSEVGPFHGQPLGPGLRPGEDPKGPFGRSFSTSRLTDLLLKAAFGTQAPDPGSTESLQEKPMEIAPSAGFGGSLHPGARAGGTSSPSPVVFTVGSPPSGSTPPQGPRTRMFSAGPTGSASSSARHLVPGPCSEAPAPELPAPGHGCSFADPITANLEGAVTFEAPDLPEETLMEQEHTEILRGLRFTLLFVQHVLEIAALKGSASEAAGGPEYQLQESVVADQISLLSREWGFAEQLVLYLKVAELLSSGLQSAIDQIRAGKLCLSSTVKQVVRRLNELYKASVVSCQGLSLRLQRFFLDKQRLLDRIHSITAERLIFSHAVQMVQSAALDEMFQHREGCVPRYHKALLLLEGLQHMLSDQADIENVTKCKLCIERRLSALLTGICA
Sequence of MYO3B (Q8WXR4 whole entry): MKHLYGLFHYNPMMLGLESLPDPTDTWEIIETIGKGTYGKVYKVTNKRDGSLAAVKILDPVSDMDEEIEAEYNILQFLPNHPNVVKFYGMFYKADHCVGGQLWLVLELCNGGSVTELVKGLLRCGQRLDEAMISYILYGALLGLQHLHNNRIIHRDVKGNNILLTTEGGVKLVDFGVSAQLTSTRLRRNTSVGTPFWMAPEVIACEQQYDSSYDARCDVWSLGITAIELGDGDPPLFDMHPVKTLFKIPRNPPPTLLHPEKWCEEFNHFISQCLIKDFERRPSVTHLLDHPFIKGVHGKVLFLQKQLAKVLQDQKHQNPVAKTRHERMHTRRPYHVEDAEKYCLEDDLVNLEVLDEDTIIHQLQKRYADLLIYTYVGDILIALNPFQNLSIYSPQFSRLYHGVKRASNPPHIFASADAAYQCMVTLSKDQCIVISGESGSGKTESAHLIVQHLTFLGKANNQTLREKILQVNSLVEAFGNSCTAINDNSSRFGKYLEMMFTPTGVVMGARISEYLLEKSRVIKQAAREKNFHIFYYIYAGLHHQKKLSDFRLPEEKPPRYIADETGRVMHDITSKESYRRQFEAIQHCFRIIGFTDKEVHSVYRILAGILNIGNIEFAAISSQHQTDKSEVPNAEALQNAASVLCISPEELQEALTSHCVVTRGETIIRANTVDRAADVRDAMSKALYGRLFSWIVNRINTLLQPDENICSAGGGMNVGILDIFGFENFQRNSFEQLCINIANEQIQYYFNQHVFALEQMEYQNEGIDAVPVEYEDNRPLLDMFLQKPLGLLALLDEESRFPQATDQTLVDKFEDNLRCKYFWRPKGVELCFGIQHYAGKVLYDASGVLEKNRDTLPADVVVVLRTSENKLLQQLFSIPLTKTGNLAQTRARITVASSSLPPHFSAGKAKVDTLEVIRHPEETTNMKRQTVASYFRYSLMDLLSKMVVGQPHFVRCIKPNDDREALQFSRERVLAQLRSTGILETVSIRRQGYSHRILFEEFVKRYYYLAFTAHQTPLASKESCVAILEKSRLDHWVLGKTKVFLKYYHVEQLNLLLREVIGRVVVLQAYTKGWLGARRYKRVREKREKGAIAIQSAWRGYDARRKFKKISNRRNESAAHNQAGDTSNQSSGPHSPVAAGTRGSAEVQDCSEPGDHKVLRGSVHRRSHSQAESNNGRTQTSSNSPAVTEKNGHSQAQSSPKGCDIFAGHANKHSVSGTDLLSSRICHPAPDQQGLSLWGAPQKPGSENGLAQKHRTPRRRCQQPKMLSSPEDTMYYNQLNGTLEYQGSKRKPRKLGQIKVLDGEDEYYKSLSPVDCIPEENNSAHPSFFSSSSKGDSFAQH
T2 sequence (Q9UPZ9 whole entry): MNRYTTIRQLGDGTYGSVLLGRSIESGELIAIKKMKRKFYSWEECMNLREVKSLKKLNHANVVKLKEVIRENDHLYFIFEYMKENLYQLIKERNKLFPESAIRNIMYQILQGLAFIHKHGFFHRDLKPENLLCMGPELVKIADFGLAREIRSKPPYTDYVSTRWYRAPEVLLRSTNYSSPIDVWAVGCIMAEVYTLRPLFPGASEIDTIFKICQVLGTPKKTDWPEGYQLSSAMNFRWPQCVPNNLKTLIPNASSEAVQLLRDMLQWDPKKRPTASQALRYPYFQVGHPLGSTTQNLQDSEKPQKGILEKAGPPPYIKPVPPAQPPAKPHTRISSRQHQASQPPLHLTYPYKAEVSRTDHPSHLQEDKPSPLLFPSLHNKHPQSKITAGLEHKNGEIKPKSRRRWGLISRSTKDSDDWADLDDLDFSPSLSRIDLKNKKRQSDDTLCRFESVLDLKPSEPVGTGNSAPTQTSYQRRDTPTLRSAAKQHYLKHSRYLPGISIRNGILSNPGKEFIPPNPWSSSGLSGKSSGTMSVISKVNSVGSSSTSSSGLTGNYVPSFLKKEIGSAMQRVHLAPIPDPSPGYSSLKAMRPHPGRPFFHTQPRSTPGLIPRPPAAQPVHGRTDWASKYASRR
Sequence of TLK1 (Q9UKI8 whole entry): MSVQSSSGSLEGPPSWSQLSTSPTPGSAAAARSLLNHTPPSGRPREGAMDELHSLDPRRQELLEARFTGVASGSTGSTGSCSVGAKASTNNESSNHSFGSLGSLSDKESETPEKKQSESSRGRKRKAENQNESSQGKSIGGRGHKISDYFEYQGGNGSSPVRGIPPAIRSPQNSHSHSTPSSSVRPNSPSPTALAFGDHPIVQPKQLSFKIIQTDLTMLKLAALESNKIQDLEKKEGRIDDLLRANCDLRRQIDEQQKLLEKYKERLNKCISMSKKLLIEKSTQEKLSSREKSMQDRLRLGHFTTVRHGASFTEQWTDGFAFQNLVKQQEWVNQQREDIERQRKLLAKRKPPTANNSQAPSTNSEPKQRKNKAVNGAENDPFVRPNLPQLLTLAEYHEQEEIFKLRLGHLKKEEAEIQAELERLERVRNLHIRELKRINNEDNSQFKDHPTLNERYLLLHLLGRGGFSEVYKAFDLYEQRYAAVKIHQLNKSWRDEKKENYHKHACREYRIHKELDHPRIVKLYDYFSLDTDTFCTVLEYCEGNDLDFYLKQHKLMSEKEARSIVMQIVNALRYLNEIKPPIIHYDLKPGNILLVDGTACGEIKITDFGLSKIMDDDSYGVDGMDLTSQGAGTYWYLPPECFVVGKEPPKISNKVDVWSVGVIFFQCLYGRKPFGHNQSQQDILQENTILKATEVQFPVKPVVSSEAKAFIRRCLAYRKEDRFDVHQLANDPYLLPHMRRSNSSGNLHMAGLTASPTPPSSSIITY
T1 sequence (Q15759 whole entry): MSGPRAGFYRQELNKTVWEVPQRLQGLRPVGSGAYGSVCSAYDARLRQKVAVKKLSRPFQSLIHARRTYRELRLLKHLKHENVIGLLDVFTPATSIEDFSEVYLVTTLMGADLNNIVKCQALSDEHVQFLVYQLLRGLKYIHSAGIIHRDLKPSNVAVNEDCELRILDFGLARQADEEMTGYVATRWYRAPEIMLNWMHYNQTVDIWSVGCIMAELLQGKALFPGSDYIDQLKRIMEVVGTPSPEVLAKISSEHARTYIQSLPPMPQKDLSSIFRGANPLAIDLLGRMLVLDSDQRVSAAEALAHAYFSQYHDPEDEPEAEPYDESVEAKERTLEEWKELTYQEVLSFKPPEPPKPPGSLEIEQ
Sequence of TGFBR1 (P36897 whole entry): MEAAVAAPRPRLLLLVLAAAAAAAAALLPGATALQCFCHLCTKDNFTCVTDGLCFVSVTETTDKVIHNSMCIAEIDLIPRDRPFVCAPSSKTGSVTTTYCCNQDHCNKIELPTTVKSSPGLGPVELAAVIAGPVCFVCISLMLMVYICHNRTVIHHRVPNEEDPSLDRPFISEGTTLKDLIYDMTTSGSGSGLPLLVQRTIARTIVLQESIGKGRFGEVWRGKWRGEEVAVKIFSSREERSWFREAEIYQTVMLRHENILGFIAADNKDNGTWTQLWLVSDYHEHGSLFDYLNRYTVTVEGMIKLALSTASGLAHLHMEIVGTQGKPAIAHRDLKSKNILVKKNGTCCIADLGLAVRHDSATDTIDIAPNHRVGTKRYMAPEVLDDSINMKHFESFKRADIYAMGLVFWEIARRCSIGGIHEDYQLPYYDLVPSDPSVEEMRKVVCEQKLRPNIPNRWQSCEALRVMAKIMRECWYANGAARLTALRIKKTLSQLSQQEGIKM

Cc1cnc2nc1Nc1cccc(c1)COCc1cc(ccc1OCCN1CCCC1)N2 [Compound 1]
remaining binding at 0.1 µM (FLT3-autoinhibited): 48%
remaining binding at 0.1 µM (EPHB1): 97%
remaining binding at 0.1 µM (TLK1): 100%
remaining binding at 0.1 µM [1]: 88%
remaining binding at 0.1 µM (FGFR2): 79%
remaining binding at 0.1 µM (MYO3B): 99%
remaining binding at 0.1 µM (p38-beta): 86%
remaining binding at 0.1 µM (ICK): 80%
remaining binding at 0.1 µM (LRRK2): 85%
remaining binding at 0.1 µM (ARK5): 51%
remaining binding at 0.1 µM (LIMK1): 88%
remaining binding at 0.1 µM [2]: 64%
remaining binding at 0.1 µM (CDKL1): 86%
remaining binding at 0.1 µM (ALK): 79%
remaining binding at 0.1 µM (PKN2): 100%
remaining binding at 0.1 µM (HIPK2): 100%
remaining binding at 0.1 µM [3]: 97%
remaining binding at 0.1 µM (MKNK1): 93%
remaining binding at 0.1 µM (ULK1): 52%
remaining binding at 0.1 µM (PYK2): 82%
remaining binding at 0.1 µM (EIF2AK1): 76%
remaining binding at 0.1 µM (MRCKB): 96%
remaining binding at 0.1 µM (TGFBR1): 94%
remaining binding at 0.1 µM (HUNK): 100%
remaining binding at 0.1 µM (ERK1): 100%
